Laboratory results: patent US20210341378A1, “HIGH-CONTENT IMAGING OF MICROFLUIDIC DEVICES” (priority 2019, published 2021)
Blank lines part the entries; values can stand above or below the compound they belong to.

How the values were obtained:
[1] = system: microfluidic devices seeded with liver cells (hepatocytes and LSECs); test: High-content confocal imaging of Liver-Chips treated with staurosporine; format: cell-based, human; settings: 10 μM, six hours of exposure
Description: Microfluidic devices were obtained from Emulate Inc. (USA) and are illustrated in FIG. 1A. The channels of the microfluidic devices were coated with a proprietary mixture of extracellular matrix and were incubated overnight at 37° C. Primary human cryopreserved hepatocytes sourced from ThermoFisher, as one example, were seeded in the top channel at a density of 3.5×10^6 cells/mL, and were left to form an attached monolayer at 37° C. in a humidified incubator with a 95%/5% ratio of air to CO2.
Twenty-four hours after seeding, the hepatocyte monolayer was overlaid with Matrigel Matrix sourced from Corning, USA. Primary human cryopreserved liver sinusoidal endothelial cells, also known as LSECs, were seeded on the bottom channel of the microfluidic device at a density of 2 to 4×10^6 cells/mL in endothelial medium, also known as CSC medium or Base LSEC Culture Medium; CSC basal Medium plus Culture-Boost (2%), Cell Systems, and Pen/Strep (1%), Sigma. In some embodiments, endothelial cells are cultured in Complete LSEC Culture Medium, Base LSEC Culture Medium plus 10% FBS. […]
The effects of agents, such as staurosporine on cell phenotype was evaluated. […] The protocol was chosen as it was analogous to how the compound has been evaluated in vivo. […]

dogs = test: Repeat-dose toxicity studies in dogs; format: in vivo; settings: dog study of the cFMS/FLT3 inhibitor
Description: JNJ-1, prepared in purified water, was administered once daily for 14 days to 5 male and 5 female rats at doses of 5, 25, and 125 mg/kg. In a separate study, JNJ-1, also in purified water, was administered once daily for 4 weeks to 5 male and 5 female dogs at 0 or 40 mg/kg/day, and to 3 males and 3 female dogs at 2 or 10 mg/kg/day. Mortality, clinical observations, body weight, food consumption, clinical pathology, gross necropsy and microscopic examination of selected tissues, and toxicokinetics were evaluated. […] Histology slides (hematoxylin and eosin staining and Mason's Trichrome staining) of the liver tissues were prepared and evaluated microscopically. The quantification of JNJ-1 was conducted using a qualified liquid chromatographic-triple quadrupole mass spectrometric (LC-MS/MS) procedure.
JNJ-3 (in 20% hydroxypropyl-β-cyclodextrin) was administered once daily for 14 days to 3 male beagle dogs per group at doses of 15 and 65 mg/kg. Mortality, clinical observations, body weight, food consumption, clinical pathology, gross necropsy and microscopic examination of selected tissues, and toxicokinetics were evaluated. […] Histology slides (hematoxylin and eosin staining and Mason's Trichrome staining) of the liver tissues were prepared and evaluated microscopically. […]

Kupffer cells = test: Kupffer cell count (CD68-positive cells), human Liver-Chip; format: cell-based; settings: human quadruple-cell chip
Description: (§1) Microfluidic devices seeded with liver cells and static sandwich plate cultures were fixed with 4% paraformaldehyde for 15 minutes at room temperature, washed with PBS, and permeabilized (saponin 1% with 10% serum in PBS). Blocking and incubation with the primary antibodies (overnight in PBS containing 1% BSA or PBS containing 10% serum and 1% BSA) was followed by a two-hour incubation with secondary antibodies (Cell Signaling, Danvers, Mass., USA) in the same blocking buffer. Immunostaining was performed with specific primary antibodies (anti-MRP2, anti-stabilin-1, anti-BSEP, anti-α-SMA, anti-CD68; Abcam, Cambridge, Mass., USA) and images were acquired with either an Olympus fluorescence microscope (IX83) or Zeiss confocal microscope (AxiovertZ1 LSM880).
(§2) The number of CD68- or α-SMA-positive cells in the vascular channel in each group was counted in each field of view ([…]) and quantified.

[2] = system: microfluidic devices seeded with human liver cells; test: Cytokine release (IL-6, MCP-1, IP-10) from vascular channel, human Liver-Chip; format: cell-based
Description: Cytokines: Release of IL-6, MCP-1, and IP-10 from the vascular channel was quantified using U-PLEX biomarker human assays (Meso Scale Diagnostics, Rockville, Md., USA) and the assays were performed according to the protocol provided by the vendor.

rats = test: Repeat-dose toxicity studies in rats; format: in vivo; settings: rat study of the cFMS/FLT3 inhibitor
Description: JNJ-1, prepared in purified water, was administered once daily for 14 days to 5 male and 5 female rats at doses of 5, 25, and 125 mg/kg. In a separate study, JNJ-1, also in purified water, was administered once daily for 4 weeks to 5 male and 5 female dogs at 0 or 40 mg/kg/day, and to 3 males and 3 female dogs at 2 or 10 mg/kg/day. Mortality, clinical observations, body weight, food consumption, clinical pathology, gross necropsy and microscopic examination of selected tissues, and toxicokinetics were evaluated. Rats or dogs were fasted overnight prior to blood collection for measurement of clinical pathology parameters (including AST and ALT) at the end of 14 days (rats) or 4 weeks (dogs) of dosing. Histology slides (hematoxylin and eosin staining and Mason's Trichrome staining) of the liver tissues were prepared and evaluated microscopically. The quantification of JNJ-1 was conducted using a qualified liquid chromatographic-triple quadrupole mass spectrometric (LC-MS/MS) procedure.
Regarding histology procedures, the liver was sampled. Briefly, 5 serial sections were prepared. One was stained with hematoxylin and eosin (H&E) kit. The 4 others were submitted to histochemical and immunohistochemical stains. Collagen was detected with the Van Gieson kit (Merck, Darmstadt, Germany), and reticulin, with the Reticulum kit (Sigma-Aldrich). […]

[3] = system: microfluidic devices seeded with human liver cells; test: Lipid accumulation (Nile red / AdipoRed), human Liver-Chip; format: cell-based; settings: daily 1, 10 and 30 μM for 7 days, quadruple-cell chip
Source text: Microfluidic devices seeded with liver cells were stained in the upper channel with 5(6)-Carboxy-2′,7′-dichlorofluorescein diacetate (CDFDA) (ThermoFisher) to visualize bile canaliculi and MRP2 activity, cholyl-lysyl-fluorescein (CLF) (Corning) to visualize bile canaliculi and BSEP activity, Nile red (ThermoFisher) or AdipoRed (Lonza) to visualize lipid droplet accumulation, Tetramethylrhodamine, methyl ester (TMRM) (ThermoFisher) to visualize active mitochondria, and CellROX® (ThermoFisher) to visualize cellular oxidative stress. Each staining solution was prepared in blank medium or compound dosing medium and added to the upper channel, incubated for 15 minutes at 37° C., and washed three times with medium. The stained microfluidic devices were imaged using a specific filter, and were de-blurred with Olympus cellSens software. Using ImageJ-Fiji, the fluorescent channel images were histogram adjusted to remove background, followed by fluorescence quantification using the Integrated Density calculation function.
The stained microfluidic devices were imaged using the TRITC filter, and were de-blurred with Olympus cellSens software. Using ImageJ-Fiji, the fluorescent channel images were histogram adjusted to remove background, followed by fluorescence quantification using the Integrated Density calculation function. N=5 FOVs per microfluidic device were analyzed for conditions: vehicle (0.1% DMSO), FIAU dosing groups, and MTX dosing groups.

[4] = system: microfluidic devices seeded with human liver cells; test: Albumin secretion (ELISA), human Liver-Chip; format: cell-based
Source text: Prior to cell seeding, microfluidic devices, in this case S-I Chips (Emulate, Inc. Boston, Mass., USA), were functionalized using Emulate's proprietary protocols and reagents (ER™), including those described herein. After surface functionalization, both channels of the microfluidic device were coated with species-specific extracellular matrices (ECM). For the human bound microfluidic device, a mixture of collagen type I (Corning, Corning, N.Y., USA) and fibronectin, e.g. bovine, (Gibco) was used; for the rat bound microfluidic devices a mixture of collagen type IV, e.g. human placenta, (Sigma-Aldrich, St. Louis, Mo., USA) and fibronectin (Gibco) was used; for the dog bound microfluidic devices a mixture of collagen I (Corning), collagen type IV (Sigma-Aldrich), and fibronectin (Gibco) was used. […] For the dual-cell culture model (hepatocytes and endothelial cells), the LSECs were seeded at a concentration of 2-4 million cells/mL in the lower vascular channel. […] After cell seeding, the upper channel of the microfluidic device was maintained in William's E Medium (WEM) containing Glutamax (Gibco), ITS+ (Corning), dexamethasone (Sigma-Aldrich), ascorbic acid (Sigma-Aldrich), fetal bovine serum (FBS) (Sigma-Aldrich), and Penicillin/Streptomycin (Sigma-Aldrich). The vascular channel of the microfluidic device was maintained with species-specific endothelial media (Emulate, Inc.). Two days after seeding, the microfluidic devices were connected to the Human Emulation System™ (Emulate, Inc.), as described in part herein, and both of the microfluidic device channels were perfused at 30 μL/hr to provide a continuous supply of fresh media for the duration of the experiments. Albumin secretion from the upper channel was quantified using ELISA kits for human, rat, and dog models effluent samples (human and rat: Abcam; dog: Immunology Consultants Laboratory, Inc., Portland, Oreg., USA) and the assays were performed according to the protocol provided by each vendor.

stellate cells = test: Stellate cell activation (alpha-SMA), human Liver-Chip; format: cell-based; settings: daily 1, 10 and 30 μM for 7 days, quadruple-cell chip
Description: as §1, §2
The fluorescent channel (588) was first background subtracted and processed using the median filter of Image J. After processing, the signal was thresholded using adaptive thresholding function of Image J (Otsu method) to extract fluorescent regions and to measure the relative intensity of the fluorescent signal. N=4 to 6 FOVs per microfluidic device from each microfluidic device were analyzed. […]

[5] = some patient populations; cited from earlier work
[6] = system: microfluidic devices seeded with human liver cells; test: APAP metabolite quantification by LC-MS, human Liver-Chip; format: in vitro ADME; settings: daily 3 mM for 20 days, quadruple-cell human chip
Source text: After APAP exposure to microfluidic devices seeded with human liver cells, effluent metabolite levels were quantified using LC-MS analysis. […] APAP-Glucuronide (APAP-Glu), the primary metabolite of APAP, was not quantified using a standard curve. Rather, the LC-MS peak area of APAP-Glu was reported corresponding to each sample.

[7] = system: 3D human spheroid hepatic cultures; settings: fold higher than the human Liver-Chip IC50; cited from earlier work
[8] = system: microfluidic devices seeded with rat liver cells; test: Albumin secretion (ELISA), rat Liver-Chip; format: cell-based; settings: 168 h; dual-cell rat chips, daily administration 1-100 μM for 7 days; read-out: IC50 of decrease in albumin secretion
Source text: Prior to cell seeding, microfluidic devices, in this case S-I Chips (Emulate, Inc. Boston, Mass., USA), were functionalized using Emulate's proprietary protocols and reagents (ER™), including those described herein. After surface functionalization, both channels of the microfluidic device were coated with species-specific extracellular matrices (ECM). For the human bound microfluidic device, a mixture of collagen type I (Corning, Corning, N.Y., USA) and fibronectin, e.g. bovine, (Gibco) was used; for the rat bound microfluidic devices a mixture of collagen type IV, e.g. human placenta, (Sigma-Aldrich, St. Louis, Mo., USA) and fibronectin (Gibco) was used; for the dog bound microfluidic devices a mixture of collagen I (Corning), collagen type IV (Sigma-Aldrich), and fibronectin (Gibco) was used. […] For the dual-cell culture model (hepatocytes and endothelial cells), the LSECs were seeded at a concentration of 2-4 million cells/mL in the lower vascular channel. […] Albumin secretion from the upper channel was quantified using ELISA kits for human, rat, and dog models effluent samples (human and rat: Abcam; dog: Immunology Consultants Laboratory, Inc., Portland, Oreg., USA) and the assays were performed according to the protocol provided by each vendor.

[9] = biological target: T1, bile salt export pump (BSEP) (Homo sapiens, UniProt O95342); test: CLF efflux into bile canaliculi (BSEP activity), human Liver-Chip; format: cell-based; settings: 30 μM, co-treatment with CLF
T1 construct: Primary rat, dog or human hepatocytes were cultured in the upper parenchymal channel; endogenous in cells; host or cells: primary human hepatocytes co-cultured with LSECs in a microfluidic Liver-Chip

BSEP = BSEP protein area and gene expression, human Liver-Chip; format: cell-based; settings: 30 μM

T1 sequence (O95342 whole entry): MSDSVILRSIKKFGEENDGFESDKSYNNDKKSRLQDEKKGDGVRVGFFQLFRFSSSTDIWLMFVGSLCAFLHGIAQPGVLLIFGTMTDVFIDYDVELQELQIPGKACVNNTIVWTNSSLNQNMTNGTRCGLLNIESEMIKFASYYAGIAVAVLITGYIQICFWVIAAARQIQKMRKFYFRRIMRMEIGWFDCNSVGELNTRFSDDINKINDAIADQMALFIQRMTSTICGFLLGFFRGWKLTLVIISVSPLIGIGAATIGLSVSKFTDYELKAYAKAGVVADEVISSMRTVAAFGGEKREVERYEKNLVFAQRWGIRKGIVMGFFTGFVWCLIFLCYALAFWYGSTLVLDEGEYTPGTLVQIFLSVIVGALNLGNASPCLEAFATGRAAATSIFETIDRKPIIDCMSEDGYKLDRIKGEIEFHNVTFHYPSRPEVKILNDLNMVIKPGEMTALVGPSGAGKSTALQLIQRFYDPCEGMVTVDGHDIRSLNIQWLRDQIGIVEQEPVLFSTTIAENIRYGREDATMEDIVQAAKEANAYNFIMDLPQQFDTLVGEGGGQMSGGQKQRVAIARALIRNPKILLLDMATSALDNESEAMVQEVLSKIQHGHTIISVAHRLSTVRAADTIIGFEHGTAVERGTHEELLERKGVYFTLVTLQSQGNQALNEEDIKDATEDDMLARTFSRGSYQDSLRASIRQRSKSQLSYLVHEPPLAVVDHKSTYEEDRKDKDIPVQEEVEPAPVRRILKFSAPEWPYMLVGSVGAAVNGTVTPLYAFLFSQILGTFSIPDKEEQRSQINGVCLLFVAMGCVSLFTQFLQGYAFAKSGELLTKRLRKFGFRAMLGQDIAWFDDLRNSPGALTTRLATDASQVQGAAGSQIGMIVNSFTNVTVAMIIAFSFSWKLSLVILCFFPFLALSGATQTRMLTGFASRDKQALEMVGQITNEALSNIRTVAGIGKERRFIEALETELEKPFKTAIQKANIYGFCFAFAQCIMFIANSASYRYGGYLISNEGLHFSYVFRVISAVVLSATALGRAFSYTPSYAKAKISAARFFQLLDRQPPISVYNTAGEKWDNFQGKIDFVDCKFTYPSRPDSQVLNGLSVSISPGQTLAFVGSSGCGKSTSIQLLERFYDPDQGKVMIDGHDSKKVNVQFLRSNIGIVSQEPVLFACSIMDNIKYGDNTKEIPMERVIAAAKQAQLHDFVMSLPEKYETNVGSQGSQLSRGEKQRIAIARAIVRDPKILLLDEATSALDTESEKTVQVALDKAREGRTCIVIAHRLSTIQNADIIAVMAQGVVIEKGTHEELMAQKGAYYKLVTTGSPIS

SMILES: CN[C@@H]1C[C@H]2O[C@@](C)([C@@H]1OC)n1c3ccccc3c3c4c(c5c6ccccc6n2c5c31)C(=O)NC4 [Staurosporine, staurosporine]
LSECs [1]: complete loss
apoptotic marker (CC3) [1]: marked increases

SMILES: CN(C)CC(=O)N1CCC(c2ccc(NC(=O)c3nc(C#N)c[nH]3)c(C3=CCCCC3)c2)CC1 [a JNJ compound]
microscopic changes in the liver (dogs): without any correlative microscopic changes
transaminases (dogs): Dose-related elevation
CD68-positive cells (Kupffer cell depletion) (Kupffer cells): decreased number
interleukin 6 (IL-6) in the vascular channel ([2]; human quadruple-cell chip): dose-dependent decrease
monocyte chemoattractant protein-1 (MCP-1) in the vascular channel ([2]; human quadruple-cell chip): dose-dependent decrease
microscopic changes in the liver (rats): without any correlative microscopic changes
transaminases (rats): Dose-related elevation

albumin secretion ([4]; MTX 1, 10 and 30 μM for 7 days, quadruple-cell chip): no abnormalities
expression of α-SMA (stellate cell activation) (stellate cells): increased expression
SMILES: CN(Cc1cnc2nc(N)nc(N)c2n1)c1ccc(C(=O)N[C@@H](CCC(=O)O)C(=O)O)cc1 [MTX, Methotrexate]
lipid accumulation detected by Nile red [3]: microscopic evidence of lipid accumulation
IP-10 ([2]; MTX treatment, 1 day, vascular channel): increases
cytokines/chemokines including IP-10 ([2]; treated Liver-Chips (discussion)): release
maximal plasma concentrations at which liver injury occurs in humans [5]: ~1 µM

albumin synthesis ([4]; APAP 7 days, quadruple-cell human chip): decreased
APAP glucuronide in parenchymal and vascular channels [6]: significant amounts
SMILES: CC(=O)Nc1ccc(O)cc1 [APAP, acetaminophen]

SMILES: COc1ccccc1Oc1c(NS(=O)(=O)c2ccc(C(C)(C)C)cc2)nc(-c2ncccn2)nc1OCCO [bosentan]
IC50 in 3D human spheroid hepatic cultures relative to human chip [7]: more than 10 fold
IC50 [8]: > 100 µM
CLF in human hepatocytes [9]: intracellular accumulation
BSEP mRNA levels (BSEP): decreases
BSEP protein levels (BSEP): decreases
